Measured values reported in patent publication US20260103497A1, “DUAL GLP-1 AND GIP RECEPTOR AGONIST PHARMACEUTICAL COMPOSITION AND USE THEREOF” (BRIGHTGENE PTE. LTD., priority 2022, published 2026).

Legend:
[1] = molecular target: GLP-1 receptor (Homo sapiens, UniProt P43220); assay: Preclinical agonistic effect on GLP-1 receptor; details: greater activity compared to Tirzepatide; preclinical studies
[2] = Solubility of the compound of formula I in compositions with sodium chloride or propylene glycol; type: physicochemical; details: disodium hydrogen phosphate dodecahydrate, pH 7, water for injection
Source text: It is worth mentioning that in polypeptide-based preparations, sodium chloride is believed to play a role in maintaining electrolyte balance and stabilizing polypeptide structures, and it is present as a stabilizer in a variety of existing polypeptide-based preparations.

[3] = molecular target: T1, GIP receptor (Homo sapiens, UniProt P48546); assay: Preclinical agonistic effect on GIP receptor; details: greater activity compared to Tirzepatide; preclinical studies
T1 sequence (P48546 22-466): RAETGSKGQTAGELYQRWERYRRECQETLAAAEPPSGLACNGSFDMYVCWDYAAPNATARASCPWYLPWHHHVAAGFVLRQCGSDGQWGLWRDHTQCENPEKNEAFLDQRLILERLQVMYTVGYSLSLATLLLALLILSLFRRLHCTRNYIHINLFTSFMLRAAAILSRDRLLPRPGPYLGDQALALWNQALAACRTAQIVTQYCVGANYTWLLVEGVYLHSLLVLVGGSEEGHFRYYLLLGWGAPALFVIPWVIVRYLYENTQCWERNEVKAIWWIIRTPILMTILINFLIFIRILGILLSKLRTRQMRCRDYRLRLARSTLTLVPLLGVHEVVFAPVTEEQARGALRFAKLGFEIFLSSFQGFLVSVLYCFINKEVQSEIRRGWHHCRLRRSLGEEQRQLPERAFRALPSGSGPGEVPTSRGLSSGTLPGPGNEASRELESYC

[4] = tested on: plasma proteins; assay: Plasma protein binding; type: in vitro ADME; details: plasma proteins from all species
[5] = Pre-clinical pharmacokinetics in rats; details: rat, in vivo
[6] = Pre-clinical pharmacokinetics in cynomolgus monkeys; details: cynomolgus monkey, in vivo

Sequence of GLP-1 receptor (P43220 24-463, species assumed): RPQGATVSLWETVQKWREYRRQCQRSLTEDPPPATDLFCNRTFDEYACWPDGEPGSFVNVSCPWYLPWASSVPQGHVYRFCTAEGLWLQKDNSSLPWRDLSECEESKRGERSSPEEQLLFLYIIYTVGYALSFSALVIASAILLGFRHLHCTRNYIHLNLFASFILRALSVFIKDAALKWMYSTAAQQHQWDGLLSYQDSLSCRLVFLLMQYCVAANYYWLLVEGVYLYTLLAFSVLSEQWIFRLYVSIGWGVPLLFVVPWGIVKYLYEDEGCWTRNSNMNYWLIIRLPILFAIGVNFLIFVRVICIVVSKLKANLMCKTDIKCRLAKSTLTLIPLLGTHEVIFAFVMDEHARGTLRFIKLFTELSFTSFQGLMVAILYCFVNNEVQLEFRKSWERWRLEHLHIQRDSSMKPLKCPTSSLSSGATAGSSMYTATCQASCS

- agonistic activity on GLP-1 receptor compared to Tirzepatide [1]: 2- to 3 fold
- solubility ([2]; pH 7, propylene glycol as stabilizer (14 mg in 1 mL)): ≥ 30000 µg/mL
- solubility ([2]; sodium chloride instead of propylene glycol (16.4 mg in 2 mL)): 150 µg/mL
- agonistic activity on GIP receptor compared to Tirzepatide [3]: 2- to 3 fold
- binding rates to plasma proteins [4]: over 99.4%
- half-life [5]: ~14 h
- half-life [6]: ~40 h
SMILES: NC(=O)C(CCCCNC(=O)COCCOCCOCCNC(=O)COCCOCCOCCNC(=O)CCC(NC(=O)CC(=O)O)C(=O)O)NN[C@H](C=O)CO (stereo partly shown) [Compound of formula I]
